Assay: molar heat capacity at constant pressure
Details: 101.33 kPa, Crystal, Vacuum adiabatic calorimetry

O=C(CO)[C@@H](O)[C@@H](O)[C@H](O)CO [D-(-)-tagatose]
Details | molar heat capacity at constant pressure [J/K/mol]
10 K | 0.94
14.02 K | 2.674
14.41 K | 2.87
14.81 K | 3.123
15.25 K | 3.307
15.73 K | 3.601
16.23 K | 3.917
16.72 K | 4.241
17.21 K | 4.591
17.74 K | 4.922
18.26 K | 5.33
18.79 K | 5.733
19.32 K | 6.103
19.88 K | 6.523
20 K | 6.61
20.46 K | 6.946
21.02 K | 7.413
21.59 K | 7.933
22.17 K | 8.327
22.74 K | 8.872
23.29 K | 9.326
23.86 K | 9.837
24.43 K | 10.34
24.96 K | 10.79
25.5 K | 11.35
26.05 K | 11.75
26.63 K | 12.36
27.21 K | 12.84
27.8 K | 13.39
28.43 K | 14.04
29.08 K | 14.61
29.7 K | 15.2
30 K | 15.48
30.32 K | 15.75
30.93 K | 16.36
31.54 K | 16.95
32.18 K | 17.49
32.85 K | 18.2
33.51 K | 18.79
34.17 K | 19.45
34.85 K | 20.14
35.56 K | 20.8
36.25 K | 21.42
36.92 K | 22.12
37.6 K | 22.72
38.32 K | 23.45
39.06 K | 24.19
39.8 K | 24.86
40 K | 25.07
40.56 K | 25.59
41.34 K | 26.39
42.12 K | 27.17
42.9 K | 27.84
43.73 K | 28.66
44.59 K | 29.45
45.47 K | 30.31
46.33 K | 31.15
47.17 K | 31.93
48.01 K | 32.72
48.86 K | 33.49
49.73 K | 34.49
50 K | 34.58
50.59 K | 35.1
51.44 K | 35.9
52.28 K | 36.7
53.12 K | 37.43
53.94 K | 38.19
54.73 K | 38.96
55.51 K | 39.6
56.29 K | 40.34
57.09 K | 41.06
57.89 K | 41.8
58.7 K | 42.51
59.51 K | 43.28
60 K | 43.72
60.35 K | 44.06
61.19 K | 44.77
62.02 K | 45.55
62.84 K | 46.28
63.66 K | 46.99
64.47 K | 47.71
65.28 K | 48.44
66.09 K | 49.12
66.9 K | 49.84
67.72 K | 50.53
68.52 K | 51.3
69.3 K | 51.99
70 K | 52.55
70.08 K | 52.63
70.85 K | 53.29
71.66 K | 54
72.51 K | 54.75
73.34 K | 55.43
74.17 K | 56.15
74.99 K | 56.78
75.84 K | 57.55
76.73 K | 58.37
77.61 K | 59.05
78.48 K | 59.83
79.34 K | 60.58
80 K | 61.11
80.24 K | 61.32
81.18 K | 62.13
82.13 K | 62.93
83.07 K | 63.68
84.01 K | 64.47
85 K | 65.34
86.03 K | 66.11
87.06 K | 66.91
88.1 K | 67.79
89.12 K | 68.69
90 K | 69.42
90.18 K | 69.57
91.27 K | 70.49
92.35 K | 71.33
93.42 K | 72.22
94.47 K | 73.05
95.56 K | 73.96
96.68 K | 74.84
97.79 K | 75.75
98.88 K | 76.69
99.96 K | 77.46
100 K | 77.52
101.1 K | 78.37
102.28 K | 79.32
103.46 K | 80.27
104.64 K | 81.16
105.83 K | 82.14
107.05 K | 83.09
108.3 K | 84.09
109.54 K | 85.07
110 K | 85.43
